The record followed here is ChEMBL document CHEMBL1201862, “PubChem BioAssay data set” (2004).

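Protocol summary: plate cells (96-well), add compound at 5 concentrations, incubate 48 h, interpolate endpoints linearly. At the GI50, growth is halved.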 The source made the active and inactive calls. Cut-off read from the data, not from the text of the source: active = GI50 up to about 1.1 µM and inactive = higher. Where only a bound is given, the exact number is not on record here.

Test systems include UACC-257; ACHN; COLO 205; SNB-75; EKVX; PC-3; MDA-N; 786-0; BT-549; HL-60; A549; CAKI-1; CCRF-CEM; NCI-H23; MCF7; HCT-116; IGROV-1; DU-145.
Assay in all cases: NCI tumour cell line growth inhibition, 48 h

Take `CSc1nc(=O)c(C#N)c(-c2ccccc2)n1C1OC(COC(C)=O)C(OC(C)=O)C(OC(C)=O)C1OC(C)=O` (stereo not drawn): the GI50 in the experiment with UACC-257 was > 100 µM (inactive); with ACHN, > 100 µM (inactive); with COLO 205, > 100 µM (inactive); in the experiment on SNB-75, 42.5 µM (inactive); in the experiment with EKVX, > 100 µM (inactive); in the experiment with PC-3, 52.2 µM (inactive). The GI50 in the experiment on MDA-N is > 100 µM (inactive); in the experiment on 786-0 it was 82.6 µM (inactive); in the experiment with BT-549, > 100 µM (inactive); in the experiment with HL-60 it was > 100 µM (inactive); with A549, 69.3 µM (inactive); in the experiment on CAKI-1 it was > 100 µM (inactive). For the same molecule, the GI50 with CCRF-CEM is 99.8 µM (inactive); with NCI-H23, > 100 µM (inactive); in the experiment on MCF7, > 100 µM (inactive); in the experiment on HCT-116 it was 79.4 µM (inactive); in the experiment with IGROV-1, > 100 µM (inactive); in the experiment with DU-145, > 100 µM (inactive).
`O=[N+]([O-])c1ccc(-c2cc(O)c3nc4ccccc4n3c2)cc1`: the GI50 is > 100 µM (inactive) in the experiment with UACC-257; 65.2 µM (inactive) with ACHN; > 100 µM (inactive) in the experiment with COLO 205; > 40.9 µM (inactive) in the experiment on SNB-75; > 100 µM (inactive) in the experiment with EKVX; > 100 µM (inactive) in the experiment with PC-3. For the same molecule, the GI50 with MDA-N is > 100 µM (inactive); with 786-0, > 90.6 µM (inactive); with BT-549 it was > 100 µM (inactive); in the experiment with HL-60, > 100 µM (inactive); with A549, > 100 µM (inactive); in the experiment on CAKI-1, > 100 µM (inactive). In addition, the GI50 in the experiment on CCRF-CEM is > 100 µM (inactive); with NCI-H23, > 100 µM (inactive); in the experiment on MCF7 it was > 84.7 µM (inactive); in the experiment on HCT-116, > 100 µM (inactive); in the experiment with IGROV-1 it was > 100 µM (inactive); with DU-145, > 100 µM (inactive).
For `CCCN(CCC)C(=S)Sc1nc(C)nc(N2CCN(c3nc(C)nc(SC(=S)N(CCC)CCC)c3[N+](=O)[O-])CC2)c1[N+](=O)[O-]`, the GI50 was 15.6 µM (inactive) with UACC-257; 13.9 µM (inactive) with ACHN; 0.262 µM (active) with COLO 205; 27.5 µM (inactive) in the experiment with SNB-75; 30.5 µM (inactive) in the experiment on EKVX; 15.2 µM (inactive) with PC-3. Also, the GI50 was 8.45 µM (inactive) in the experiment on MDA-N; 3.62 µM (inactive) in the experiment on 786-0; 5.2 µM (inactive) in the experiment on BT-549; 3.1 µM (inactive) in the experiment with HL-60; 20.7 µM (inactive) in the experiment on A549; 9.16 µM (inactive) in the experiment with CAKI-1. In addition, the GI50 is 0.628 µM (active) in the experiment with CCRF-CEM; 12.4 µM (inactive) in the experiment on NCI-H23; 0.248 µM (active) in the experiment on MCF7; 2.03 µM (inactive) in the experiment with HCT-116; 11.4 µM (inactive) in the experiment with IGROV-1; 26.8 µM (inactive) in the experiment on DU-145.
On to `CC(=O)Nc1ccc(OC/C(N)=N/NC(=O)c2ccncc2)cc1`, for which the GI50 was > 100 µM (inactive) in the experiment on UACC-257; > 100 µM (inactive) in the experiment with ACHN; > 100 µM (inactive) in the experiment with COLO 205; 29.1 µM (inactive) in the experiment on SNB-75; > 100 µM (inactive) with EKVX; > 100 µM (inactive) with PC-3. The GI50 in the experiment with MDA-N, in the experiment with 786-0, in the experiment on BT-549, with HL-60, in the experiment with A549 and in the experiment on CAKI-1 was > 100 µM (inactive) throughout. Moreover, the GI50 in the experiment with CCRF-CEM, in the experiment on NCI-H23, in the experiment with MCF7, in the experiment with HCT-116, with IGROV-1 and with DU-145 was > 100 µM (inactive) throughout.
As for `CN(C)CC1CN/C(=N\C(=O)Nc2ccccc2)O1` (stereo not drawn), the GI50 in the experiment on UACC-257, in the experiment with ACHN, with COLO 205, in the experiment on SNB-75, with EKVX and with PC-3 was > 100 µM (inactive) in each case. Besides, the GI50 with MDA-N, in the experiment on 786-0, in the experiment on BT-549, in the experiment on HL-60, in the experiment with A549 and in the experiment with CAKI-1 was > 100 µM (inactive) in each case. For the same molecule, the GI50 in the experiment on CCRF-CEM, in the experiment with NCI-H23, in the experiment with MCF7, with HCT-116, in the experiment with IGROV-1 and in the experiment on DU-145 was > 100 µM (inactive) in each case.
Regarding `FC(F)(F)c1ccc2c(c1)nc(Cc1ccccc1)n2C[C@@H]1CCCN2CCCCC12` (stereo partly drawn), the GI50 in the experiment with UACC-257 was 14.7 µM (inactive); in the experiment with ACHN, 13.5 µM (inactive); in the experiment with COLO 205 it was 14.1 µM (inactive); with SNB-75, 15.1 µM (inactive); in the experiment on EKVX, 8.47 µM (inactive); with PC-3 it was 14.3 µM (inactive). For the same molecule, the GI50 was 12.7 µM (inactive) in the experiment on MDA-N; 13.9 µM (inactive) in the experiment with 786-0; 14 µM (inactive) with BT-549; 1.59 µM (inactive) in the experiment with HL-60; 15 µM (inactive) in the experiment on A549; 15.1 µM (inactive) in the experiment with CAKI-1. Besides, the GI50 is 17.1 µM (inactive) with CCRF-CEM; 14.6 µM (inactive) with NCI-H23; 14.1 µM (inactive) with MCF7; 14.1 µM (inactive) with HCT-116; 12.9 µM (inactive) in the experiment on IGROV-1; 15.5 µM (inactive) in the experiment on DU-145.
Take `COc1ccc(C2c3cc4c(cc3C(O)C3CCC(=O)N23)OCO4)cc1` (stereo not drawn): the GI50 with UACC-257 was > 100 µM (inactive); with ACHN, > 100 µM (inactive); in the experiment on COLO 205, > 100 µM (inactive); with SNB-75, 82.2 µM (inactive); with EKVX it was > 100 µM (inactive); in the experiment with PC-3 it was > 100 µM (inactive). Also, the GI50 with MDA-N is > 100 µM (inactive); in the experiment on 786-0, > 100 µM (inactive); in the experiment on BT-549, 96.4 µM (inactive); with HL-60 it was > 100 µM (inactive); in the experiment with A549 it was > 100 µM (inactive); in the experiment with CAKI-1, > 100 µM (inactive). Moreover, the GI50 in the experiment on CCRF-CEM, with NCI-H23, in the experiment with MCF7, with HCT-116, in the experiment on IGROV-1 and with DU-145 was > 100 µM (inactive) throughout.
As for `O=C(Nc1ccn(C2CC(I)C(COC(c3ccccc3)(c3ccccc3)c3ccccc3)O2)c(=O)n1)c1ccccc1` (stereo not drawn), the GI50 in the experiment with UACC-257 is 10.8 µM (inactive); in the experiment with ACHN, 12.7 µM (inactive); in the experiment on COLO 205, 7.59 µM (inactive); in the experiment with SNB-75, 2.43 µM (inactive); in the experiment on EKVX, 13.2 µM (inactive); in the experiment on PC-3, 2.36 µM (inactive). Also, the GI50 in the experiment with MDA-N is 7.91 µM (inactive); in the experiment with 786-0, 8.34 µM (inactive); in the experiment with BT-549, 25.6 µM (inactive); in the experiment on HL-60, 5.83 µM (inactive); with A549, 7.83 µM (inactive); in the experiment with CAKI-1, 15.6 µM (inactive). The GI50 in the experiment with CCRF-CEM was 8.89 µM (inactive); with NCI-H23 it was 6.89 µM (inactive); in the experiment with MCF7, 4.86 µM (inactive); in the experiment with HCT-116 it was 6.35 µM (inactive); with IGROV-1, 13.3 µM (inactive); in the experiment on DU-145, 11.9 µM (inactive).
As to `Cc1cn(C2CC(N=[N+]=[N-])C(CO[Si](C)(C)C(C)(C)C)O2)c(=O)[nH]c1=O` (stereo not drawn), the GI50 in the experiment on UACC-257 is 21.6 µM (inactive); in the experiment with ACHN it was 21.8 µM (inactive); in the experiment with COLO 205, 17.5 µM (inactive); with SNB-75 it was 19.3 µM (inactive); with EKVX, 23.5 µM (inactive); in the experiment on PC-3, 15.7 µM (inactive). Further, the GI50 with MDA-N was 17 µM (inactive); with 786-0, 15.6 µM (inactive); in the experiment on BT-549 it was 10.7 µM (inactive); in the experiment on HL-60, 28.7 µM (inactive); with A549, 27.2 µM (inactive); with CAKI-1, 16.4 µM (inactive). In addition, the GI50 in the experiment with CCRF-CEM is 24.5 µM (inactive); in the experiment with NCI-H23 it was 21.1 µM (inactive); with MCF7 it was 18 µM (inactive); with HCT-116 it was 16.1 µM (inactive); in the experiment with IGROV-1, 18.7 µM (inactive); in the experiment on DU-145 it was 21.6 µM (inactive).
Turning to `CCOC(=O)COc1c(OC)cc(C2C3=C(COC3=O)Oc3cc4c(cc32)OCO4)cc1OC` (stereo not drawn), the GI50 in the experiment with UACC-257 is 9.77 µM (inactive); in the experiment on ACHN, 6.52 µM (inactive); with COLO 205, 0.991 µM (active); in the experiment with SNB-75 it was 4.62 µM (inactive); in the experiment with EKVX it was 4.02 µM (inactive); in the experiment with PC-3, 1.87 µM (inactive). For the same molecule, the GI50 in the experiment on MDA-N is 0.384 µM (active); in the experiment on 786-0, 2.77 µM (inactive); with BT-549, 21.9 µM (inactive); with HL-60, 0.138 µM (active); in the experiment on A549, 4.45 µM (inactive); in the experiment with CAKI-1, 3.41 µM (inactive). In addition, the GI50 with CCRF-CEM is 0.229 µM (active); in the experiment with NCI-H23, 0.646 µM (active); in the experiment with MCF7 it was 3.27 µM (inactive); with HCT-116, 0.773 µM (active); in the experiment on IGROV-1, 1.83 µM (inactive); with DU-145, 4.5 µM (inactive).
Turning to `CCN(CC)CCn1ncc2ccc3c(c(=O)c4cccnc4n3CCN(CC)CC)c21`, the GI50 with UACC-257 is 1.88 µM (inactive); in the experiment with ACHN, 0.733 µM (active); in the experiment with COLO 205, 0.493 µM (active); with SNB-75 it was 1.05 µM (active); with EKVX, 1.29 µM (inactive); with PC-3, 0.986 µM (active). Further, the GI50 in the experiment with MDA-N is 0.861 µM (active); with 786-0, 0.438 µM (active); in the experiment on BT-549, 2.25 µM (inactive); with HL-60 it was 1.09 µM (active); with A549 it was 0.618 µM (active); in the experiment on CAKI-1, 3.54 µM (inactive). Besides, the GI50 with CCRF-CEM was 0.348 µM (active); in the experiment with NCI-H23 it was 1.29 µM (inactive); in the experiment with MCF7 it was 0.618 µM (active); in the experiment with HCT-116, 0.385 µM (active); in the experiment with IGROV-1, 0.625 µM (active); in the experiment on DU-145 it was 2.41 µM (inactive).
